Some test systems named below: DLD-1 colon; DMS 114 small cell lung; LXFL 529 NSCLC; RXF-631 renal; SNB-78 CNS; DMS 273 small cell lung; HOP-18 NSCLC; XF 498 CNS; MDA-N.
Holding throughout (experiment): NCI-60 cell line screen, 48 h

The values below come from PubChem BioAssay (NCI).

Values joined by “and” are separate entries in the source; they are usually repeats but may differ in a detail not shown here. Equal values may be shown once.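 Method: 48-hour compound exposure of cells in 96-well plates, five concentrations, linear interpolation of endpoints. Here, GI50 denotes the concentration required for 50% inhibition of growth. TGI: concentration producing complete growth inhibition.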 A value given as a limit tells only on which side of the number the result lay.

With `CCn1c(O)c(C(=O)Nc2cccs2)c(=O)n(CC)c1=S`, the TGI in the test with DLD-1 colon is greater than 100 µM; with DMS 114 small cell lung, 31.7 µM; with LXFL 529 NSCLC, 55.7 µM; in the test with RXF-631 renal, 41.8 µM; with SNB-78 CNS, 50.4 µM.
Turning to `Cc1c(Cl)ccc2[s+]snc12`, the TGI in the test with DLD-1 colon was 62 µM; in the test on DMS 273 small cell lung it was greater than 100 µM; with HOP-18 NSCLC, 95.2 µM; in the test with LXFL 529 NSCLC it was 92 µM; in the test on RXF-631 renal, greater than 100 µM; with SNB-78 CNS it was greater than 100 µM. The compound further came in with a TGI in the test on XF 498 CNS of 55.2 µM.
`Cc1cc2c(=O)cc(-c3ccncc3)oc2c(C(N)=O)c1C`: the TGI in the test on DMS 273 small cell lung, with HOP-18 NSCLC, in the test on LXFL 529 NSCLC, in the test with SNB-78 CNS and in the test with XF 498 CNS was greater than 100 µM each time.
As for `O=C(NC(=Nc1ccccc1)SCCSC(=Nc1ccccc1)NC(=O)c1ccccc1)c1ccccc1`, the TGI in the test with DLD-1 colon, in the test with DMS 114 small cell lung, in the test with DMS 273 small cell lung, in the test with LXFL 529 NSCLC, with SNB-78 CNS and with XF 498 CNS was greater than 100 µM each time.
Take `CC(=O)Nc1ccc(/C=C/C(=O)c2sc(-n3nc(-c4ccccc4)cc3-c3ccccc3)nc2C)cc1`: the GI50 in the test on DLD-1 colon, in the test on DMS 273 small cell lung, in the test with LXFL 529 NSCLC and with RXF-631 renal was greater than 100 µM each time. In addition, the TGI with DLD-1 colon, with DMS 114 small cell lung, in the test with DMS 273 small cell lung, with LXFL 529 NSCLC and in the test on RXF-631 renal was greater than 100 µM each time.
`CC(=O)O[C@@H]1[C@H]2O[C@H]2[C@H]2O[C@@]2(COC(=O)c2ccccc2)[C@H]1OC(C)=O` had a TGI in the test with MDA-N greater than 100 µM.
For the compound `O=C(c1ccccc1)N1CCc2c([nH]c3ccccc23)C1`, the TGI is greater than 100 µM in the test on DLD-1 colon; 65.1 µM in the test with DMS 114 small cell lung; greater than 100 µM in the test with DMS 273 small cell lung; greater than 100 µM with HOP-18 NSCLC; greater than 100 µM in the test with LXFL 529 NSCLC; greater than 100 µM with RXF-631 renal. The compound further displayed a TGI with XF 498 CNS of 55 µM.
With `COc1cc(/C=C(\C#N)C(=O)c2ccccc2)cc(OC)c1OC`, the TGI in the test on DLD-1 colon, in the test on DMS 114 small cell lung, with DMS 273 small cell lung, in the test with HOP-18 NSCLC, in the test with LXFL 529 NSCLC and in the test with SNB-78 CNS was greater than 100 µM throughout.
In turn, `O=C(N=Nc1c(O)[nH]c2c(Cl)cc(Cl)cc12)C(=O)Nc1cccc(C(F)(F)F)c1` had a TGI in the test with MDA-N greater than 100 µM.
`CCN(CC)CCN1C(=O)c2cccc3cc(N)cc(c23)C1=O`: in the test on MDA-N, the TGI turned out to be 23.8 µM.
With `COC(=O)N1C=Cc2c(c(C)c3c([nH]c4ccccc43)c2C)C1C` (stereo not drawn), the TGI turned out to be 32.7 µM in the test with DLD-1 colon; 40 µM in the test on DMS 114 small cell lung; 39 µM in the test with DMS 273 small cell lung; 43.7 µM in the test with LXFL 529 NSCLC; 37.5 µM in the test with RXF-631 renal; 34.2 µM in the test with XF 498 CNS.
Turning to `CC(C)CC(=O)O[C@H]1C(=O)O[C@@H]2C[C@H]3[C@H](C)C(=O)C(O[C@@H]4O[C@H](CO)[C@@H](O)[C@H](O)[C@H]4O)=C[C@]3(C)[C@H]3[C@@H](O)[C@H](O)[C@]4(C(=O)O)OC[C@]32[C@@H]14`, the TGI in the test with MDA-N is greater than 100 µM.
Consider `O=C(/C=C/c1ccccc1)c1ccccn1`, for which the TGI in the test on MDA-N is 30.5 µM and 67.4 µM.
Regarding `CCCCCCCCCCCCCCCCCCCCCCC(=O)N[C@H]1CCc2cc(OC)c(OC)c(OC)c2-c2ccc(SC)c(=O)cc21`, the TGI is greater than 100 µM with DMS 273 small cell lung; greater than 100 µM in the test on LXFL 529 NSCLC; 51.4 µM with RXF-631 renal; greater than 100 µM in the test on SNB-78 CNS; 61.3 µM in the test with XF 498 CNS.
`O=C(Nc1cc(Cl)ccc1Cl)c1cc2ccccc2oc1=O`: the TGI with DLD-1 colon was greater than 100 µM; in the test on DMS 114 small cell lung, greater than 100 µM; in the test on DMS 273 small cell lung it was greater than 100 µM; with HOP-18 NSCLC, 83 µM.
For `C/C(=N\NC(N)=O)C(CN1CCOCC1)C(c1ccccc1)c1c(O)c2ccccc2oc1=O` (stereo not drawn), the TGI in the test with MDA-N is greater than 100 µM.
With `O=c1ccn([C@@H]2C[C@H](CO)CS(=O)C2)c(=O)[nH]1` (stereo partly drawn), the TGI in the test with DLD-1 colon, in the test on DMS 114 small cell lung, with DMS 273 small cell lung, in the test on HOP-18 NSCLC and with LXFL 529 NSCLC was greater than 100 µM in each case.
Regarding `CCC[CH2][Sn]1([CH2]CCC)[O]C(=O)c2cccnc2[S]1`, the GI50 in the test on DLD-1 colon is 3.94 µM; in the test on DMS 114 small cell lung, 1.64 µM; in the test with DMS 273 small cell lung, 3.38 µM; in the test on LXFL 529 NSCLC, 1.33 µM; in the test on SNB-78 CNS, 1.88 µM; with XF 498 CNS, 2 µM. Also, the TGI came to 14.5 µM in the test with DLD-1 colon; 3.83 µM with DMS 114 small cell lung; 13.7 µM with DMS 273 small cell lung; 2.98 µM in the test on LXFL 529 NSCLC; 5.76 µM in the test with SNB-78 CNS; 3.5 µM in the test on XF 498 CNS.
For the compound `O=C(CC1(O)C(=O)Nc2ccc(Br)cc21)c1cccc([N+](=O)[O-])c1` (stereo not drawn), the TGI in the test with DLD-1 colon, in the test with DMS 273 small cell lung, in the test with HOP-18 NSCLC, with LXFL 529 NSCLC, in the test with RXF-631 renal and in the test on SNB-78 CNS was greater than 100 µM in each case.
With `BrC(/C=N/Nc1nnc(-c2ccccc2)c(-c2ccccc2)n1)C(Br)c1ccccc1` (stereo not drawn), the TGI in the test on DLD-1 colon is greater than 100 µM; with DMS 114 small cell lung, greater than 100 µM; in the test with DMS 273 small cell lung it was greater than 100 µM; in the test on RXF-631 renal, greater than 100 µM; in the test with SNB-78 CNS it was 78.1 µM; in the test on XF 498 CNS it was 82.7 µM.
For the compound `CCCCP1(=O)C=CC(Cl)=C(C)C1` (stereo not drawn), the TGI in the test on DLD-1 colon, in the test on HOP-18 NSCLC, in the test with LXFL 529 NSCLC and with SNB-78 CNS was greater than 100 µM each time.
For the compound `Cc1nc2ccccc2c(=O)n1/N=C(\N=Nc1ccc(Cl)cc1)c1ccc(N(C)C)cc1`, the TGI is greater than 100 µM with DLD-1 colon; greater than 100 µM in the test on DMS 114 small cell lung; greater than 100 µM in the test on DMS 273 small cell lung; greater than 100 µM in the test with HOP-18 NSCLC; greater than 100 µM in the test on LXFL 529 NSCLC; 96.3 µM in the test with XF 498 CNS.
On to `O=C1C(=C2C(=O)c3ccccc3[N+]2=O)N([O-])c2ccccc21`, for which the TGI in the test on DLD-1 colon was 88.6 µM; with DMS 114 small cell lung, 33.9 µM; in the test with DMS 273 small cell lung, 89.5 µM; with HOP-18 NSCLC, 71.5 µM; with LXFL 529 NSCLC it was 43.5 µM; in the test on SNB-78 CNS, greater than 100 µM.
Regarding `COc1ccc(Cc2c3cc(OC)c(OC)cc3cc[n+]2C)cc1`, the TGI with DLD-1 colon is greater than 26.9 µM; with DMS 114 small cell lung it was greater than 28.8 µM; with HOP-18 NSCLC, greater than 45.8 µM; with LXFL 529 NSCLC it was greater than 24.6 µM; in the test with RXF-631 renal, greater than 24 µM; in the test on SNB-78 CNS, greater than 100 µM. The same compound registered a TGI in the test with XF 498 CNS greater than 23.4 µM.
Take `N#CC1(C2CC(=O)N(c3ccccc3)C2=O)CCCCC1=O` (stereo not drawn): the TGI in the test on DLD-1 colon, in the test on DMS 114 small cell lung, with DMS 273 small cell lung, with HOP-18 NSCLC, with LXFL 529 NSCLC and in the test on RXF-631 renal was greater than 100 µM each time. Further, the TGI in the test on SNB-78 CNS and with XF 498 CNS was greater than 100 µM each time.
With `CC[C@H]1CNC(=O)CC1CC(=O)OC` (stereo partly drawn), the TGI with DLD-1 colon, in the test on DMS 114 small cell lung, in the test on DMS 273 small cell lung, in the test with RXF-631 renal and with SNB-78 CNS was greater than 100 µM throughout.
Turning to `C#CC[C@]12CC(=O)CC[C@H]1CC1(C2)OCCO1`, the TGI in the test on DLD-1 colon, in the test with DMS 114 small cell lung, in the test on DMS 273 small cell lung, with HOP-18 NSCLC, in the test on LXFL 529 NSCLC and with RXF-631 renal was greater than 100 µM throughout. The same compound came in with a TGI in the test with SNB-78 CNS greater than 100 µM.
Take `CC(=O)NNc1nc(C)c(C(=O)NNC(=O)C(=O)Nc2ccc(C)cc2[N+](=O)[O-])s1`: the TGI with DLD-1 colon, in the test on DMS 114 small cell lung, with DMS 273 small cell lung, with HOP-18 NSCLC, in the test on LXFL 529 NSCLC and in the test with RXF-631 renal was greater than 100 µM in each case. In the test on SNB-78 CNS, this compound registered a TGI greater than 100 µM.
Take `Cc1cc(Br)ccc1N=NC1C(=O)ON=C1c1ccccc1` (stereo not drawn): the TGI in the test with DLD-1 colon, in the test with DMS 114 small cell lung, with DMS 273 small cell lung, with HOP-18 NSCLC, in the test on LXFL 529 NSCLC and with RXF-631 renal was greater than 100 µM throughout. This compound also had a TGI in the test on SNB-78 CNS greater than 100 µM.
As for `CC1(C)OC2OC(/C=C/[N+](=O)[O-])C3OC(C)(C)OC3C2O1` (stereo not drawn), the TGI with DLD-1 colon turned out to be 4.05 µM; in the test with DMS 114 small cell lung, 34.5 µM; in the test with DMS 273 small cell lung it was 40.4 µM; in the test on HOP-18 NSCLC, 40.8 µM; with LXFL 529 NSCLC, 10.1 µM; in the test with SNB-78 CNS, 44 µM.
Turning to `CC1CC(=O)C(CC(=O)O)[C@H]1C(C(=O)C(=O)Nc1cc(Cl)ccc1Cl)[N+](=O)[O-]` (stereo partly drawn), the TGI in the test on DLD-1 colon, in the test with DMS 114 small cell lung, in the test on HOP-18 NSCLC and in the test on XF 498 CNS was greater than 100 µM in each case.
Compound `C/C=C/C(C/C=C(\C)CO[Si](C)(C)C(C)(C)C)O[Si](C)(C)C(C)(C)C` (stereo not drawn) displayed a TGI in the test with MDA-N greater than 100 µM.
`c1c[nH]c(CN2CCN(Cc3ncc[nH]3)CC2)n1` came in with a TGI in the test on MDA-N greater than 100 µM.
Take `C[C@H](O)CCC(=O)c1ccoc1`: the TGI in the test on DLD-1 colon, in the test with DMS 114 small cell lung, with DMS 273 small cell lung, with HOP-18 NSCLC, in the test on LXFL 529 NSCLC and in the test with SNB-78 CNS was greater than 100 µM in each case.
As for `O=C(/C=C/c1c[nH]c2ccccc12)c1ccccc1O`, in the test on MDA-N, the TGI came out at 17.5 µM.
In the case of `CCc1cccc(CC)c1NC1=CC(=O)C(=O)c2ccccc21`, the TGI in the test with DLD-1 colon is 49.7 µM; in the test on DMS 114 small cell lung it was 27.6 µM; in the test on DMS 273 small cell lung, 41.6 µM; with HOP-18 NSCLC, 62.9 µM; in the test on LXFL 529 NSCLC, 48.8 µM; in the test on RXF-631 renal it was greater than 100 µM. The TGI with SNB-78 CNS came out at 80.6 µM.
